In PubChem BioAssay AID179 (DTP/NCI, 2004):
Several values for one entry are separate records, joined by “and”; a condition that tells them apart may be missing. Equal entries are not always repeated. Activity calls are given as the source filed them.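 The calls were made as follows: active = compounds giving half or more protection of infected cells from virus-caused growth loss, again on retest; inactive = the rest.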 Where a SMILES comes first, the peptide text is derived from it. [ ]: non-standard residue; d: D form. The star is where a group is joined. Ac5c = NC1(C(=O)O)CCCC1; Boc = CC(C)(C)OC(=O)*; tBu = CC(C)(C)*

Test system: CEM cells HIV-1 protection, formazan growth assay
Assay: NCI AIDS Antiviral Assay
Conditions: for IC50: measured here: growth of uninfected CEM cells
Outline: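 Soluble formazan readout of cell growth; CEM cells ± HIV-1; 5 drug concs. ≥50% protection → retest; ≥50% again = moderately active; reproducible 100% = confirmed active.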

| Compound | EC50 | IC50 | outcome |
| --- | --- | --- | --- |
| COc1c(Cl)nc2ccccc2c1N=[N+]=[N-] | > 200 µM | 135 µM | – |
| CCCOc1cnc([C@H]2CCC3[C@@H]4CC=C5C[C@@H](OC(=O)CCC(=O)O)CC[C@]5(C)C4CC[C@@]32C)s1 (some centres not stated) | > 47.9 µM | 19.1 µM | – |
| COc1cc2ccc(C(=O)NCCCNC(=O)c3ccc4cc(OC)c(OC)cc4c3)cc2cc1OC | 126 µM | > 200 µM | – |
| O=C(/N=C/c1c(O)c2ccccc2oc1=O)NC1CCCCC1 | > 41.7 µM | > 41.7 µM | – |
| COC(=O)C12CC3CC(C1)CC(C(=O)OC)(C3)C2 | > 513 µM | 363 µM | – |
| COP(C)(=O)C(Cc1c[nH]c2ccccc12)NC(=O)OCc1ccccc1 (configuration not stated) | > 200 µM | > 200 µM | – |
| COC(=O)CP(=O)(OC)OCC(F)(F)F (configuration not stated) | > 1000 µM | 832 µM | – |
| O=C(C=Nc1ccccc1S)c1cccs1 | > 5.89 µM | > 5.89 µM | – |
| O=C(CCN(C(=O)O)S(=O)(=O)c1ccc(NC(=O)c2ccccc2)cc1)Nc1ccccc1 | > 537 µM | > 537 µM | – |
| COc1ccc(C(CC(=O)O)CC(=O)O)cc1[N+](=O)[O-] | > 200 µM | > 200 µM | – |
| CC1=Nc2ccccc2S/C1=C(/C)NNS(=O)(=O)c1ccc(C)cc1 | > 53.7 µM | > 53.7 µM | – |
| NCCCCNCCCN1CC1 | > 200 µM | 0.148 µM | – |
| Cc1ccc2nc(N/N=C/c3sccc3C)cc(C)c2c1 | > 200 µM | 49 µM | – |
| O=C(c1ccccc1)c1cccc(C(=O)c2ccccc2)c1 | > 25.1 µM | > 25.1 µM | – |
| CCOC1N(C2CC(N=[N+]=[N-])C(CO)O2)C(=O)NC(=O)C1(C)Br (configuration not stated) | 0.00813 µM and 0.00631 µM | 22.4 µM and 17.4 µM | – |
| CC(C)(C)c1cc(C2COC(c3cc(C(C)(C)C)c(O)c(C(C)(C)C)c3)CO2)cc(C(C)(C)C)c1O (configuration not stated) | > 50.1 µM | > 50.1 µM | – |
| CC(=O)c1cccc(NC(=O)/C(=N\NC(C)(C)C)c2c(O)c3ccccc3oc2=O)c1 | > 589 µM | 257 µM | – |
| O=c1[nH]c(=O)n(C2OC(CO)C(O)C2O)cc1OCc1ccccc1 (configuration not stated) | > 708 µM | > 708 µM | – |
| O=C1OC(=O)c2c1c(-c1ccccc1)cn2-c1ccc(Cl)cc1 | – | – | inactive |
| COc1ccc(N=C2C(=S)N(c3ccc(OC)cc3)/C(=N/S(=O)(=O)c3ccccc3)N2c2ccccc2)cc1 | > 20 µM | 0.389 µM | – |
| Cc1cc(S(=O)(=O)n2ccnc2Oc2ccc(N)cc2)c(SSc2cc(Cl)c(C)cc2S(=O)(=O)n2ccnc2Oc2ccc(N)cc2)cc1Cl | > 100 µM | 21.9 µM | – |
| NC(=S)N/C=C\c1nc2ccccc2[nH]c1=O | > 200 µM | > 200 µM | – |

| Compound | EC50 | IC50 | outcome |
| --- | --- | --- | --- |
| C/C(=N\NC(=S)N(C)C)c1ccccn1 | > 2.24 µM | 0.0138 µM | – |
| CCOC(=O)/C(=N/Nc1ccccc1)N1C(=S)C=C(C)NN(C)C1=S | > 200 µM | > 200 µM | – |
| CCCCSC1=NCCCS1 | > 275 µM | > 275 µM | – |
| CC(OC(C)(C)C)C(NC(=O)C(CCCCNC(=O)OC(C)(C)C)NC(=O)C(Cc1c[nH]c2ccccc12)NC(=O)C(N)Cc1ccccc1)C(=O)NC(Cc1ccccc1)C(=O)NC1(C(=O)O)CCCC1 (configuration not stated) (H-FWK(Boc)T(tBu)F[Ac5c]-OH; configuration not given here) | 97.7 µM | > 100 µM | – |
| COC(=O)/C(C#N)=C/c1ccco1 | > 200 µM | > 200 µM | – |
| Cn1cc(NC(=O)c2nc(NC(=O)c3nc(NC(=O)c4ccc(C(=O)Nc5cn(C)c(C(=O)Nc6cn(C)c(C(=O)Nc7cn(C)c(C(=O)NCCC(=N)N)n7)n6)n5)nc4)cn3C)cn2C)nc1C(=O)NCCC(=N)N | > 50.1 µM | 1.17 µM | – |
| COc1ccc(-n2cnc3c(NC(CCSC)C(=O)O)ncnc32)cc1 (configuration not stated) | 75.9 µM | > 200 µM | – |
| CNC(=O)N(C(C)(C)C)S(=O)(=O)c1ccc(Cl)cc1 | – | – | inactive |
| N#Cc1c(-c2ccc(Cl)c(Cl)c2)c(-c2ccc(Cl)c(Cl)c2)nn(CC(=O)O)c1=O | > 200 µM | 55 µM | – |
| C=C(C)[C@H]1C2=CC(C(=O)OC)=C(C[C@H](C(=C)C)[C@H]3O[C@H]3C3=C[C@H]1OC3=O)O2 | > 200 µM | 1.62 µM | – |
| Cc1cc(=O)n2nc(CN3CCCCC3)sc2n1 | > 200 µM | 174 µM | – |
| Cc1cc(=O)oc2cc(OCC(O)COC(C)C)ccc12 (configuration not stated) | > 200 µM | 129 µM | – |
| CC(C)[Si]1(C(C)C)OCC2OC(n3cnc4c(N)ncnc43)C(N)C2O[Si](C(C)C)(C(C)C)O1 (configuration not stated) | > 200 µM | 8.51 µM | – |
| COC1/C=C/O[C@@]2(C)Oc3c(C)c(O)c4c(O)c(cc(O)c4c3C2=O)NC(=O)/C(C)=C\C=C\[C@H](C)C(O)[C@@H](C)[C@@H](O)[C@@H](C)[C@H](OC(C)=O)[C@@H]1C (some centres not stated) | > 174 µM | 8.13 µM | – |
| Cc1cc(/C(C#N)=C/c2ccc(N(C)C)cc2)cc(C)c1[N+](=O)[O-] | > 2 µM | 0.105 µM | – |
| O=C1C(=O)c2ccccc2C(O)=C1CC=C(Cl)Cl | > 126 µM | 0.955 µM | – |
| NC1=CN2c3ccccc3N(CC(=O)N3CCOCC3)C2C=C1 (configuration not stated) | > 200 µM | > 200 µM | – |
| NC(=O)C(=O)N/N=C1\C(=O)N(c2ccc(Cl)cc2Cl)C(=O)C1C(=O)Nc1ccc(Cl)cc1Cl (configuration not stated) | > 7.08 µM | > 7.08 µM | – |
| CC1=Nc2ccccc2C1C(Cc1ccccc1N)c1c(C)[nH]c2ccccc12 (configuration not stated) | – | – | inactive |
| C=C(CCC(Cl)C(COC)OC(CCC)OCC)[Si](C)(C)C (configuration not stated) | > 38.9 µM | > 38.9 µM | – |
| O=C(O)CN1CCNCCN(CC(=O)O)CCN(CC(=O)O)CCNCC1 | > 200 µM | 178 µM | – |
| CNC(=O)N(CCC#N)CCN(CCN(C(=O)NC)c1ccccc1)C(=O)NC | > 200 µM | > 200 µM | – |

| Compound | EC50 | IC50 | outcome |
| --- | --- | --- | --- |
| COC(=O)CCCC(=O)C1=Nc2ccccc2CN(c2ccc(Cl)cc2)N1 | > 200 µM | 126 µM | – |
| N#CC1CCCC2SC(F)(F)C(F)(F)C12 (configuration not stated) | > 200 µM | 33.1 µM | – |
| CCOC(=O)C(=CNc1ccc(NC2=NCC(C)S2)cc1)C(=O)OCC (configuration not stated) | > 200 µM | 3.24 µM | – |
| O=C(C=P(c1ccccc1)(c1ccccc1)c1ccccc1)C12CC3CC(CC(C3)C1)C2 | > 100 µM | 6.61 µM | – |
| Cc1nc2c(ccc3ncccc32)[nH]1 | – | – | inactive |
| [Cl][Ho]([Cl])[Cl] | > 162 µM | > 162 µM | – |
| O=C(Nc1ccc(Cl)cc1Cl)C1C(=O)C(=O)N(c2ccc(Cl)cc2Cl)C1=O (configuration not stated) | > 8.51 µM | > 8.51 µM | – |
| Cc1ccc2c(c1)C/C(=C\c1ccccc1C(=O)O)C2=O | > 200 µM | 102 µM | – |
| C#CCNC(Cc1ccccc1)C(=O)O (configuration not stated) | > 200 µM | > 200 µM | – |
| CN(C)C1C(=O)C(C(=O)NCNC(C=O)C(O)C(O)C(O)CO)=C(O)C2(O)C(=O)C3=C(O)c4c(O)cccc4C(C)(O)C3CC12 (configuration not stated) | > 178 µM | 110 µM | – |
| COc1ccc(-c2c(C(C)=O)c(-c3ccccc3)n(C3OC(COC(C)=O)C(OC(C)=O)C(OC(C)=O)C3OC(C)=O)c(=S)c2C#N)cc1O (configuration not stated) | > 200 µM | 24.5 µM and 38.9 µM | – |
| COc1cc2c(cc1OC)-c1cc3cc(OC)c(OC)cc3c(=O)n1CC2 | > 200 µM | 7.24 µM | – |
| CN=C(N)NC | > 1480 µM | > 1480 µM | – |
| COc1ccc(CCn2nccc2C)cc1 | > 200 µM | > 200 µM | – |
| O=c1cccc2n1C[C@H]1C[C@@H]2CN2CCCC[C@H]12 | > 200 µM | > 200 µM | – |
| O=C1COC(c2ccccc2O)=NN1Cc1ccccc1 | > 49 µM | > 49 µM | – |
| N=c1oc2ccc3ccccc3c2cc1C(N)=S | > 200 µM | 9.55 µM | – |
| CCCc1cc(=O)oc2c3c(c4c(c12)OC(C)(C)C=C4)O[C@@H](C)[C@H](C)[C@@H]3O[Si](C)(C)C(C)(C)C | > 200 µM | > 200 µM | – |
| Cc1cc(C)c(SSc2c(C)cc(C)cc2C)c(C)c1 | > 200 µM | 28.2 µM | – |
| O=C(Nc1ccc(S(=O)(=O)Nc2ncccn2)cc1)c1ccc(C(=O)Nc2ccc(S(=O)(=O)Nc3ncccn3)cc2)cc1 | > 200 µM | > 200 µM | – |
| N#Cc1ccc(NC(=NCC(=O)O)Nc2ccc3ccccc3c2)cc1 | – | – | inactive |
| CC(C)/C(Cl)=N\OC(=O)Nc1ccc(F)c([N+](=O)[O-])c1 | > 200 µM | 3.02 µM | – |

| Compound | EC50 | IC50 | outcome |
| --- | --- | --- | --- |
| O=S(=O)(OC=C1CCCCC1)C(F)(F)F | > 107 µM | > 107 µM | – |
| COc1cc(C)c2c(c1)C=C1C(=O)C(=O)C(C(C)C)=C(O)C1=CC2 | – | – | inactive |
| O=C(O)Cc1cc(=O)[nH]c2c1/C(=N/O)CCC2 | – | – | inactive |
| O=c1ccc2ccccc2o1 | > 1700 µM | 1410 µM | – |
| O=C(Cn1c(=O)oc2ccc(C(=O)c3ccccc3Cl)cc21)c1ccc([N+](=O)[O-])cc1 | > 200 µM | 17 µM | – |
| CCP(=S)(CC)CCl | > 200 µM | > 200 µM | – |
| COC(=O)C1OC(OC2=C(c3ccc(OC)cc3)C(=O)C(OC3OC(C(=O)OC)C(OC(C)=O)C(OC(C)=O)C3OC(C)=O)=C(c3ccc(OC)cc3)C2=O)C(OC(C)=O)C(OC(C)=O)C1OC(C)=O (configuration not stated) | > 28.8 µM | 4.57 µM | – |
| CC(N)CNCC(C)N (configuration not stated) | > 200 µM | > 200 µM | – |
| COc1ccc(/C=C2\CCC(C)/C(=C\c3ccc(OC)c(OC)c3)C2=O)cc1OC (configuration not stated) | > 151 µM | 7.94 µM | – |
| CC1Cn2c(Cc3ccccc3)nnc2S1 (configuration not stated) | – | – | inactive |
| Cc1cc(O)c2c(c1)OC1(C)CCC3C(C)(C)CCCC34COC2C14 (configuration not stated) | > 55 µM | 1.58 µM | – |
| O=C(O)c1ccccc1-c1c2ccc(=O)cc-2oc2cc(O)ccc12 | > 316 µM | 58.9 µM | – |
| N#CC(C#N)=Cc1ccc(Oc2ccccc2)cc1 | > 21.4 µM | 16.6 µM | – |
| CC(=O)Oc1c2c(c(O)c3ccccc13)C(n1cnc3c(ncn3C3OC(CO)C4OC(C)(C)OC43)c1=N)CCC2 (configuration not stated) | > 45.7 µM | 12.9 µM | – |
| C/C(O)=C/c1nc2ccccc2[nH]1 | > 1450 µM | 1260 µM | – |
| CN(C(=O)C1(C(=O)C=[N+]=[N-])CC1)c1ccccc1 | > 1020 µM | > 1020 µM | – |
| O=C(CC(=O)Nc1ccccc1O)Nc1ccccc1O | > 447 µM | 22.4 µM | – |
| O=C(O)CC1CC=CCC1CC(=O)O (configuration not stated) | > 200 µM | > 200 µM | – |
| CCOC(=O)[C@@H]1[C@@H]2NC(=O)N[C@@]1(C)Oc1ccccc12 | > 200 µM | > 200 µM | – |
